{
  "source": "patent US4088755A",
  "about": "“Medicament for remedying schizophrenia” (priority 1975, dated 1978)",
  "key": {"[1]": {"test_system": "patients with schizophrenia", "assay": "Clinical data: case reports (Cases 1 to 6) of schizophrenic patients on neuroleptics, L-Dopa and TRH", "assay_type": "in vivo, human"}, "[2]": {"test_system": "psychotic patients / patients with schizophrenia", "assay_type": "in vivo, human", "source_text": "L-Pyroglutamyl-L-histidyl-L-prolinamide (thyrotropin-releasing hormone; hereinafter referred to as TRH) is a hypothalamic hormone which can be synthesized chemically and has been used as a diagnostic agent or as an antidepressant. […] It is known, however, that, although the onset of the effect of TRH on psychotic patients is very rapid, the duration of its effects is rather short. Thus, TRH alone cannot be a practical remedy for psychotic patients.\nOn the other hand, according to the present invention, a deterioration of the patients considered to be caused by TRH in the combined use is negligible and, therefore, determination of the dose is very easy.\nFurthermore, although the effect of TRH on pyschotic patients is known to be transient, t therapeutic effects in accordance with the present invention last long even after withdrawal of TRH or its physiologically acceptable salts, alone or together with neuroleptics, which are administered to patients in combination. In this way, long lasting therapeutic effects, as well as the rapid onset of the effects are another excellent characteristic of this invention."}, "[3]": {"test_system": "patients with schizophrenia", "assay": "Clinical data: case reports (Cases 1 to 6) of schizophrenic patients on neuroleptics, L-Dopa and TRH", "assay_type": "in vivo, human", "procedure": "The following clinical data as well as Examples are only for illustrative purposes and are not at all intended to limit or to restrict the scope of the invention.\nOn April 14, they came back to their home town and, on the following day, was admitted to hospital.\nOn July 10, TRH tartrate monohydrate 4 mg. (2.73 mg. in terms of free TRH) per day (2 mg. each in the morning and night) began to be administered orally in combination with thioridazine, 50 mg. per day, and trihexyphenydyl 6 mg. per day. […] On July 31, the administration of TRH was stopped.\nIn February 1961, the patient was admitted for the first time to Y hospital in a state of catatonic stupor. After receiving electroshock therapy and chlorpromazine, they were discharged from the hospital on April 19 of the same year. On May 26, 1966 they were again admitted to the same hospital this time in a state of catatonic excitement. […] Beginning on April 3, 1971, thioridazine, 300 mg. per day, and L-Dopa, 400 mg. daily, were added to the therapeutic regime. […] From the 9th day on, the dosage of L-Dopa was increased to 600 mg. daily. […] At the 19th week, the dosage of L-Dopa was reduced to 400 mg. and the drug was discontinued that week-end.\nHospital therapy was started with chlorpromazine, 400 mg. per day, and spiperone, 1 mg. per day. […] Consequently, the dosage of chlorpromazine was raised to 500 mg. per day. […] Beginning on August 9, penfluridol, 20 to 40 mg. twice weekly, was added to the preceding regimen of chlorpromazine 500 mg. daily. On June 26, 1973, the dosage of chlorpromazine was reduced to 200 mg. per day. Shortly thereafter, L-Dopa, 100 mg. daily, was added to the regimen from July 5 on. The dosage of L-Dopa was then increased gradually up to 600 mg. per day and finally discontinued on August 30.\nOn July 2, 1974, they were started on clocapramine, 75 mg. daily, to which TRH tartrate monohydrate, 4 mg. (2.73 mg. in terms of free TRH) daily, was orally added from July 29 on.", "remark": "listed apart in the source"}, "[4]": {"test_system": "psychotic patients / patients with schizophrenia", "settings": "cited from earlier work"}},
  "data": [
    {"smiles": "NC(=O)[C@@H]1CCCN1C(=O)[C@H](Cc1cnc[nH]1)NC(=O)[C@@H]1CCC(=O)N1", "note": "[TRH, L-Pyroglutamyl-L-histidyl-L-prolinamide]", "values": [
      {"measurement": "Persistence of remission after withdrawal of TRH, Case 1", "setting": "[1]; TRH stopped July 31, other drugs continued", "result": "His state of remission has been maintained until now"},
      {"measurement": "Persistence of improvement after withdrawal of TRH, Case 5", "setting": "[1]; TRH stopped on 15th day", "result": "the improvement has continued even after withdrawal of TRH"},
      {"measurement": "Clinical outcome, Case 3, TRH with thioridazine", "setting": "[1]; TRH tartrate monohydrate 8 mg daily (5.46 mg free TRH) orally with thioridazine 200 mg daily for two weeks, from 4th day", "result": "Their participation in work and recreational activities became more positive and their action became more agile than when they were placed on L-Dopa"},
      {"measurement": "Onset of subjective effect, Case 6", "setting": "[1]; i.v. TRH, patient felt light in the head and free from depressed feeling", "result": "One hour after the first injection"},
      {"measurement": "Persistence of effect of TRH therapy after discontinuation, Case 3", "setting": "[1]; on thioridazine alone", "result": "two"},
      {"measurement": "Clinical outcome, Case 6, intravenous TRH with neuroleptics", "setting": "[1]; person, 730 μg TRH tartrate monohydrate (500 μg free TRH)/day i.v., 5 injections, with perphenazine 12 mg/day, diazepam 10 mg/day, vegetamim B 1 tablet/day", "result": "Remarkable improvement in the symptoms was recognized subjectively as well as objectively"},
      {"measurement": "Deterioration of the patients considered to be caused by TRH in the combined use", "setting": "[2]; human, in vivo", "result": "negligible"},
      {"measurement": "Time remission maintained after withdrawal of TRH, Case 2", "setting": "[3]; on clocapramine 75 mg daily alone, remission maintained most of the time", "result": 4, "unit": "months"},
      {"measurement": "Effect of TRH alone in patients with schizophrenia", "setting": "[4]; The Lancet, July 7, 1973, pages 43 and 44", "result": "produce emotional warmth, lucidity of though and accessibility of psychotherapy"},
      {"measurement": "Duration of effects of TRH alone", "setting": "[4]; psychotic patients", "result": "rather short"},
      {"measurement": "Onset of effect of TRH alone", "setting": "[4]; psychotic patients", "result": "very rapid"}
    ]},
    {"smiles": "N[C@@H](Cc1ccc(O)c(O)c1)C(=O)O", "note": "[L-Dopa, L-3,4-dihydroxyphenylalanine]", "values": [
      {"measurement": "Clinical outcome, Case 3, L-Dopa with thioridazine", "setting": "[1]; L-Dopa 300 mg daily with thioridazine 200 mg daily", "result": "their spontaneity increased to an extent greater than that achieved before"},
      {"measurement": "Clinical outcome, Case 2, L-Dopa therapy (1973)", "setting": "[1]; L-Dopa 100 up to 600 mg per day added to chlorpromazine 200 mg per day and penfluridol, autism and abulia persisted", "result": "His general clinical picture improved to a considerable extent"},
      {"measurement": "Time condition remained the same after withdrawal of L-Dopa, Case 3", "setting": "[1]; after about 5 months of usage with thioridazine", "result": "about 4 months"},
      {"measurement": "Clinical outcome, Case 3, L-Dopa with chlorpromazine", "setting": "[1]; person, L-Dopa 400 mg with chlorpromazine 300 mg per day, end of 3rd week", "result": "an appreciable improvement in their facial expression"},
      {"measurement": "Side effects, Case 3, L-Dopa 1000 mg daily", "setting": "[1]; with chlorpromazine 300 mg per day", "result": "they seemed irritated to some extent and complained of sleeping trouble"},
      {"measurement": "Side effects, Case 3, L-Dopa 1200 mg", "setting": "[1]; with chlorpromazine 300 mg per day, led to discontinuation", "result": "appearance of auditory hallucination"},
      {"measurement": "Side-effects of L-Dopa in combined use", "setting": "[2]; human, in vivo", "result": "an excessive does of L-Dopa results in the production of side-effects in the patients"},
      {"measurement": "Effect of L-Dopa in small doses with conventionally used neuroleptics", "setting": "[2]; schizophrenia, observed by the present inventors", "result": "marked improvement of the overall clinical picture in schizophrenia"},
      {"measurement": "Clinical outcome, Case 2, L-Dopa with thioridazine (1971)", "setting": "[3]; person, L-Dopa 400-600 mg daily with thioridazine 300 to 100 mg per day, 19th week", "result": "had no morbid experience and appeared to have a clear insight"}
    ]},
    {"smiles": "O=C(CCCN1CCC(O)(c2ccc(Cl)cc2)CC1)c1ccc(F)cc1", "note": "[Haloperidol]", "values": [
      {"measurement": "Clinical outcome, Case 4, haloperidol", "setting": "[1]; 4 mg daily initially, increased up to 100 mg", "result": "failed to elicit any appreciable symptomatic response"}
    ]},
    {"smiles": "CN(C)CCCN1c2ccccc2Sc2ccc(Cl)cc21", "note": "[chlorpromazine, Chlorpromazine]", "values": [
      {"measurement": "Clinical outcome, Case 4, oral chlorpromazine", "setting": "[1]; person, initial 100 mg daily, gradually increasing dose", "result": "without result"},
      {"measurement": "Clinical outcome, Case 2, chlorpromazine with spiperone", "setting": "[3]; chlorpromazine 400 mg per day and spiperone 1 mg per day, other symptoms virtually unaffected", "result": "their negativism and psychomotor excitement seemed to disappear almost completely"}
    ]}
  ]
}
